Read-outs that look alike come from different tables or passages of the source.
Legend:
HeLa cells = test: MTS cell proliferation and/or cytotoxicity assay; type: cell-based, Human; settings: concentration at which 50% of antiproliferative cell response is seen, 3 days incubation, read-out: MTS Data Hella
Method: Cell culture. Human cervical epithelial cells (HeLa cells) were obtained from American Type Culture Collection (Manassas, Va.). Cells were grown in Eagle's minimum essential medium (MEM, Hyclone, Utah) supplemented with 2 mM Glutamine, 0.1 mM nonessential amino acid, 1 mM Na Pyruvate, 1.5 g/L NaHCO3, 50 mg/L gentamicin, and 10% fetal bovine serum (Hyclone, USA) in a humidified atmosphere of 5% CO2 at 37° C.
MTS assays. Antiproliferative effects of the compounds were tested by the CellTiter 96 AQueous assay (Promega, WI), which is a calorimetric assay for determining the number of viable cells. (See, e.g., Wang, L., et al., Methods Cell Sci (1996) 18:249-255). In one example, cells (4,500 cells/well) were seeded on 96 well flat bottom plates (Corning, N.Y.) in 100 μl of culture medium without any anticancer drug on day 0, and the culture medium was exchanged for that //contained anticancer drugs at various concentrations on day 1. After incubation for 3 days under normal growth conditions (on day 4), the monolayers were washed once in PBS, and the medium was switched to 100 μl of PBS in each of the 96 well plate. After mixing MTS and PMS at the ratio of 20:1, 20 μl of MTS/PMS solution was added to each of the 96 well plate and incubated for 4 hours in a humidified atmosphere of 5% CO2 at 37° C. The absorbance was read at 490 nm using FLUOstar Galaxy 96 well plate reader (BMG Labtechnologies, Germany). μM concentrations (MTS data) reported in Table 1 are concentrations at which 50% of antiproliferative cell response is seen.

[1] = target: c-Myc template DNA (c-myc quadruplex); test: Quadruplex binding / stop assay (Taq polymerase arrest, capillary electrophoresis); settings: read-out: Stop Data c-Myc μM; concentration at which 50% of the DNA was arrested (arrested:full-length 1:1)

SMILES	IC50 (HeLa cells; Homo sapiens, HeLa, 72 h) [µM]	IC50 [1] [µM]	IC50 (HeLa cells) [µM]
CC(=O)N[C@@H]1CCC(c2c(F)cc3c(=O)c(C(=O)NCCN4CCCC4)cn4c3c2Oc2cc3c(cc2-4)oc2ccccc23)C1 (stereo partly drawn) [compound 370]	3.5	0.75	
CN(C)/C=N/CCCNC(=O)c1cn2c3c(c(N4CC[C@@H](N)C4)c(F)cc3c1=O)Oc1cc3ccccc3cc1-2 [compound 371]	3.5	0.75	
CN1CCCC1CCNC(=O)c1cn2c3c(c(NCCC4CCCN4C)c(F)cc3c1=O)Oc1cc3c(cc1-2)oc1ccccc13 (stereo not drawn) [compound 372]	3.4	0.75	
O=C(NCCN1CCCC1)c1cn2c3c(c(NCCCN4CCOCC4)c(F)cc3c1=O)Oc1cc3c(cc1-2)-c1ccccc1C3 [compound 373]	3.3	0.75	
CC(=O)N[C@@H]1CCN(c2c(F)cc3c(=O)c(C(=O)NCCCCN(C)C)cn4c3c2Oc2cc3c(cc2-4)oc2ccccc23)C1 [compound 374]	3.3	0.75	
N[C@@H]1CCN(c2c(F)cc3c(=O)c(C(=O)NCCCN4CCOCC4)cn4c3c2Oc2cc3c(cc2-4)oc2ccccc23)C1 [compound 375]	2.7	0.75	
O=C(CCN1CCCC1)N[C@@H]1CCN(c2c(F)cc3c(=O)c(C(=O)NCCN4CCCC4)cn4c3c2Oc2cc3c(cc2-4)oc2ccccc23)C1 [compound 376]	2.4	0.75	
Nc1c(F)c(NCCCN2CCOCC2)c2c3c1c(=O)c(C(=O)NCCN1CCCC1)cn3-c1cc3ccccc3cc1O2 [compound 377]	2.2	0.75	
CN1CCCC1CCNC(=O)c1cn2c3c(c(NCCc4ccc(O)cc4)c(F)cc3c1=O)Oc1cc3ccccc3cc1-2 (stereo not drawn) [compound 378]	2.1	0.75	
NC1CCN(c2c(F)cc3c(=O)c(C(=O)NCCc4cnc[nH]4)cn4c3c2Oc2cc3ccccc3cc2-4)C1 (stereo not drawn) [compound 379]	1.9	0.75	
CN1CCCC1CCNC(=O)c1cn2c3c(c(NCCCN4CCOCC4)c(F)c(N)c3c1=O)Oc1cc3ccccc3cc1-2 (stereo not drawn) [compound 380]	1.8	0.75	
CN1CCCC1CCNC(=O)c1cn2c3c(c(NCCc4ccc(O)c(O)c4)c(F)cc3c1=O)Oc1cc3ccccc3cc1-2 (stereo not drawn) [compound 381]	1.8	0.75	
C[C@@H](O)CNc1c(F)cc2c(=O)c(C(=O)NCCC3CCCN3C)cn3c2c1Oc1cc2ccccc2cc1-3 (stereo partly drawn) [compound 382]	1.8	0.75	
CN1CCN(CCCNC(=O)c2cn3c4c(c(N5CCC(NC(=O)OC(C)(C)C)C5)c(F)cc4c2=O)Oc2cc4c(cc2-3)oc2ccccc24)CC1 (stereo not drawn) [compound 383]	0.37	0.75	
CC(C)(C)OC(=O)NC1CCN(c2c(F)cc3c(=O)c(C(=O)NCCN4CCCC4)cn4c3c2Oc2cc3c(cc2-4)oc2ccccc23)C1 (stereo not drawn) [compound 384]	0.37	0.75	
CCN(CC)CCCC(C)NC(=O)c1cn2c3c(c(N4CC5CCCNC5C4)c(F)cc3c1=O)Oc1cc3ccccc3cc1-2 (stereo not drawn) [compound 385]	0.36	0.75	
N[C@@H]1CCN(c2c(F)cc3c(=O)c(C(=O)NCCCN4CCOCC4)cn4c3c2Oc2cc3ccccc3cc2-4)C1 [compound 386]	0.34	0.75	
CC1CCCCN1CCCNC(=O)c1cn2c3c(c(N4CCC(N)C4)c(F)cc3c1=O)Oc1cc3ccccc3cc1-2 (stereo not drawn) [compound 387]	0.33	0.75	
CN1CCC(Nc2c(F)cc3c(=O)c(C(=O)NCCC4CCCN4C)cn4c3c2Oc2cc3ccccc3cc2-4)CC1 (stereo not drawn) [compound 388]	0.31	0.75	
CN1CCCC1CCNC(=O)c1cn2c3c(c(N4CCC(NC(=O)OC(C)(C)C)C4)c(F)cc3c1=O)Oc1cc3c(cc1-2)oc1ccccc13 (stereo not drawn) [compound 389]	0.29	0.75	

SMILES	IC50 (HeLa cells; Homo sapiens, HeLa, 72 h) [µM]	IC50 [1] [µM]	IC50 (HeLa cells) [µM]
N[C@@H]1CCN(c2c(F)cc3c(=O)c(C(=O)NCCN4CCOCC4)cn4c3c2Oc2cc3ccccc3cc2-4)C1 [compound 390]	0.24	0.75	
CN1CCCC1CCNC(=O)c1cn2c3c(c(NCC4(O)CCCCC4)c(F)cc3c1=O)Oc1cc3ccccc3cc1-2 (stereo not drawn) [compound 391]	0.24	0.75	
CN1CCCC1CCNC(=O)c1cn2c3c(c(NCC(O)c4ccccc4)c(F)cc3c1=O)Oc1cc3ccccc3cc1-2 (stereo not drawn) [compound 392]	0.19	0.75	
CN1CCCC1CCNC(=O)c1cn2c3c(c(N4CCC(N)C4)c(F)cc3c1=O)Oc1cc3ccccc3cc1-2 (stereo not drawn) [compound 472]		0.62	3.3
CN1CCCC1CCNC(=O)c1cn2c3c(c(N4CC[C@H](N)C4)c(F)cc3c1=O)Oc1cc3ccccc3cc1-2 (stereo partly drawn) [compound 474]	0.37	0.58	
CN(C)CCCCNC(=O)c1cn2c3c(c(N4CC[C@H](N)C4)c(F)cc3c1=O)Oc1cc3ccccc3cc1-2 [compound 475]	0.24	0.58	
O=C(NCCN1CCCC1)c1cn2c3c(c(NCCN4CCCC4)c(F)cc3c1=O)Oc1cc3c(cc1-2)oc1ccccc13 [compound 477]	2.1	0.55	
O=C(NCCN1CCCC1)c1cn2c3cc4oc5cc([N+](=O)[O-])ccc5[nH]c4cc3oc3c(NCCN4CCCC4)c(F)cc(c1=O)c32 [compound 479]	7.4	0.5	
CN(C)CCCCNC(=O)c1cn2c3cc4c(cc3oc3c(N5CC[C@H](NC(=O)OC(C)(C)C)C5)c(F)cc(c1=O)c32)c(=O)c1ccccc14 [compound 480]	3.7	0.5	
CN1CCN(CCCNc2c(F)cc3c(=O)c(C(=O)NCCCn4ccnc4)cn4c3c2Oc2cc3c(cc2-4)oc2ccccc23)CC1 [compound 481]	3.6	0.5	
O=C(CN1CCCCC1)N[C@@H]1CCN(c2c(F)cc3c(=O)c(C(=O)NCCN4CCCC4)cn4c3c2Oc2cc3c(cc2-4)oc2ccccc23)C1 [compound 482]	3.4	0.5	
CN1CCCC1CCNC(=O)c1cn2c3c(c(N4CC[C@@H](NC(=O)CCN5CCCC5)C4)c(F)cc3c1=O)Oc1cc3c(cc1-2)oc1ccccc13 (stereo partly drawn) [compound 483]	3.2	0.5	
CN1CCCC1CCNC(=O)c1cn2c3c(c(N4CC[C@@H](NC(=O)CCN5CCCCC5)C4)c(F)cc3c1=O)Oc1cc3c(cc1-2)oc1ccccc13 (stereo partly drawn) [compound 484]	3.1	0.5	
NCCCNC(=O)c1cn2c3c(c(N4CC[C@@H](N)C4)c(F)cc3c1=O)Oc1cc3ccccc3cc1-2 [compound 485]	0.5	0.5	
CN1CCCC1CCNC(=O)c1cn2c3c(c(NC4CN5CCC4CC5)c(F)cc3c1=O)Oc1cc3ccccc3cc1-2 (stereo not drawn) [compound 486]	0.39	0.5	
CC1(C)CC(NC(=O)c2cn3c4c(c(N5CC6CCCNC6C5)c(F)cc4c2=O)Oc2cc4ccccc4cc2-3)CC(C)(C)N1 (stereo not drawn) [compound 487]	0.18	0.5	
CN(C)CC(C)(C)CNC(=O)c1cn2c3c(c(N4CC5CCCNC5C4)c(F)cc3c1=O)Oc1cc3ccccc3cc1-2 (stereo not drawn) [compound 493]	0.4	0.44	
CN(C)CCCCNc1c(F)cc2c(=O)c(C(=O)NCCC3CCCN3C)cn3c2c1Oc1c-3ccc2ccccc12 (stereo not drawn) [compound 496]	4	0.41	
CN1CCCC1CCNc1c(F)cc2c(=O)c(C(=O)NCCN3CCCC3)cn3c2c1Oc1c-3ccc2ccccc12 (stereo not drawn) [compound 497]	2.1	0.41	
